Source: paper PMC10871122, “Synthesis and In Vitro Evaluation as Potential Anticancer and Antioxidant Agents of Diphenylamine-Pyrrolidin-2-one-Hydrazone Derivatives” (International Journal of Molecular Sciences, 2023)

What was measured:
IGR39 cell migration = assay: 'Wound healing' migration assay, IGR39; assay type: cell-based, human; details: 48 h of incubation; control 'wound' completely closed
Method: (§1) Cancer cells were seeded at a density of 6 × 10^4 cells/well in 24-well plates. After 48 h of incubation, a 100 µL pipette tip was used to make the scratch in each well. Following a single PBS wash, the fresh medium containing 2 and 5 µM of compounds 5, 6, 13, and 14 was added to the cells. As a negative control, medium containing 0.1% DMSO was employed.

[1] = tested on: IGR39 spheroids (cancer cells with fibroblasts 1:1); assay: 3D culture: IGR39 spheroid size and viability (WST-1); assay type: cell-based, human; details: WST-1, end of experiment
Method: Spheroids were made of cancer cells combined with fibroblast in a 1:1 ratio to better represent the real tumor microenvironment.
The magnetic 3D Bioprinting method was utilized to form cancer cell spheroids as described elsewhere. In short, the cells at 70% confluency were incubated with Nanoshuttle (n3D Biosciences, Inc., Houston, TX, USA) for 8 h. After that, the cells were trypsinized, centrifuged and seeded into ultra-low attachment 96-well plate at a ratio of 1.5 × 10^3 cancer cells and 1.5 × 10^3 human fibroblasts/well. The plate was incubated for two days at 37 °C in a humidified atmosphere on a magnetic drive. Next, the medium with 5 and 10 µM of selected compounds was added. Photos of spheroids were taken every two days using an Olympus IX73 inverted microscope (OLYMPUS CORPORATION, Tokyo, Japan), and analysis of spheroid size was performed using ImageJ, version 1.53o (National Institutes of Health, Bethesda, MD, USA) and Microsoft Office Excel 2016 software (Microsoft Corporation, Redmond, WA, USA).
On the last day of experiment, 10 µL of WST-1 reagent (Sigma-Aldrich Co, St. Louis, MO, USA) was added to each well. Following 10-h incubation, 50 µL of liquid from each well was moved to another 96-well plate and the absorbance was measured at 460 and 530 nm.

[2] = tested on: tested cancer cell lines (IGR39, PPC-1, MDA-MB-231, Panc-1); assay: MTT cell viability assay, statements on the tested cancer cell lines together; assay type: cell-based, human; details: Homo sapiens; against IGR39 and PPC-1 cell lines
Method: (§2) The effect of synthesized compounds on cell viability was studied using 3-(4,5-dimethylthiazol-2-yl)-2,5-diphenyltetrazolium bromide (MTT; Sigma-Aldrich Co., St Louis, MO, USA) assay, as described elsewhere. To summarize, the cells were seeded in triplicates in 96-well Corning plates (IGR39, MDA-MB-231, Panc-1 and PPC1: 4 × 10^3 cells/well; HF: 5 × 10^3 cells/well). The cells were treated with 100 μM of tested compounds after 24 h of incubation. After 72 h, the MTT reagent was added and the formazan crystals that had formed were dissolved in DMSO (Sigma-Aldrich Co., St. Louis, MO, USA). The absorbance was determined with a multidetection microplate reader at 570 and 630 nm.
(§3) The compound serial dilutions ranging from 50 µM to 1.56 µM were introduced to the cells. The Hill equation was used to calculate the EC50 value, or the concentration of a compound that results in a 50% reduction in the metabolic activity of cells.

[3] = tested on: human melanoma IGR39 cell line; assay: MTT cell viability assay, melanoma IGR39; assay type: cell-based
From the text: (§4) The human malignant melanoma cell line IGR39, human triple-negative breast cancer MDA-MB-231, and human pancreatic carcinoma cell line Panc-1 were obtained from the American Type Culture Collection (ATCC, Manassas, VA, USA). Human foreskin fibroblasts (HF) CRL-4001 were originally obtained from ATCC and kindly provided by Prof. Helder Santos (University of Helsinki, Finland). Primary prostate carcinoma PPC-1 cell line was kindly provided by Prof. Tambet Teesalu (University of Tartu, Estonia). All cell lines were cultured in Dulbecco’s Modified Eagle’s GlutaMAX medium (Gibco (Carlsbad, CA, USA)), supplemented with 10,000 U/mL penicillin, 10 mg/mL streptomycin (Gibco), and 10% fetal bovine serum (Gibco). Cell cultures were grown at 37 °C in a humidified atmosphere containing 5% CO2. They were used until the passage of 20.
as §2, §3

Panc-1 cell migration = assay: 'Wound healing' migration assay, Panc-1; assay type: cell-based, human; details: 72 h of incubation
Method: as §1

[4] = tested on: human triple-negative breast cancer MDA-MB-231 cell line; assay: MTT cell viability assay, MDA-MB-231; assay type: cell-based; details: 72 h
From the text: as §4, §2, §3

[5] = tested on: prostate carcinoma PPC-1 cell line; assay: MTT cell viability assay, prostate carcinoma PPC-1; assay type: cell-based, human; details: Homo sapiens; MTT, 72 h, PPC-1
From the text: as §4, §2, §3

PPC-1 cell migration = assay: 'Wound healing' migration assay, PPC-1; assay type: cell-based, human; details: 72 h of incubation
Method: as §1

[6] = Ferric reducing antioxidant power (FRAP) assay; details: absorbance at 593 nm
From the text: The ferric reducing antioxidant power (FRAP) assay was used to evaluate the antioxidant potential of new compounds 2–17. Antioxidant assays are based on determining reduction power reactions (e.g., reduction Fe^3+ to Fe^2+) or scavenging free radicals (DPPH, ABTS). The FRAP assay is based on the method of single electron transfer (SET), measuring the reduction in the complex of ferric ions (Fe^3+)-ligand to the blue ferrous complex (Fe^2+). This method uses 2,4,6-tripyridyl-s-triazine (TPTZ) as the linking ligand to the iron. The antioxidant activity of the synthesized compounds was compared with that of the well-known antioxidant protocatechuic acid. […] PCA is a building block for pharmaceuticals and is widely used to produce many medicinal products such as veratridine (sodium channel inactivation inhibitor), erlotinib (antineoplastic), Picatin II (treatment of hepatitis B), itopride hydrochloride (gastrointestinal motility drug). PCA can also cause the induction of apoptosis of human leukemia cells. Moreover, the antioxidant activity of PCA is based on the reduction in free radical formation via the up-regulation of genes encoding enzymes with neutralizing activities.
Antioxidant activity was determined as an increase in absorbance at 593 nm, and the results were expressed as of Fe^2+ μmol/L and in relation to antioxidants, and protocatechuic acid, as positive control. The FRAP reagent contained 2.5 mL of 10 mM TPTZ solution in 40 mM HCl as well as 2.5 mL of FeCl3 (20 mM) and 25 mL of acetate buffer (0.3 M, pH = 3.6). Then, 100 μL of analyzed compounds (20 mM) were mixed with 3 mL of the FRAP reagent. The absorbance of the reaction mixture was measured spectrophotometrically at 593 nm using a UV-1280 UV-VIS spectrophotometer (Shimadzu Corporation, Kyoto, Japan). To compose the calibration curve, five concentrations of FeSO4·7H2O (5, 10, 15, 20, 25 μM) were used, and the absorbance was measured as a sample solution.

[7] = tested on: human pancreatic carcinoma Panc-1 cell line; assay: MTT cell viability assay, Panc-1; assay type: cell-based
From the text: as §4, §2, §3

- EC50 [2]: 2.5 to 20.2 µM
- EC50 ([3]; Homo sapiens, IGR-39, MTT, 72 h, IGR39): 2.5 ± 0.46 µM
- EC50 ([4]; Homo sapiens, MDA-MB-231): 5.1 ± 0.8 µM
- EC50 [5]: 3.63 ± 0.45 µM
- melting point: 235 to 236 °C
- EC50 ([7]; Homo sapiens, MTT, 72 h, Panc-1): 5.77 ± 0.8 µM
SMILES: O=C(NN=Cc1ccc([N+](=O)[O-])s1)C1CC(=O)N(c2ccc(Nc3ccccc3)cc2)C1 (stereo not shown) [Compound 13, N′-((5-nitrothiophen-2-yl)methylene)-5-oxo-1-(4-(phenylamino)phenyl)pyrrolidine-3-carbohydrazide]
- 'wound' area (IGR39 cell migration): 15.8 ± 8.8%
- effect on spheroid viability compared to the control [1]: statistically significant effect
- effect on cell viability compared among the cell lines ([3]; 100 µM, 72 h, MTT): strongest effect on melanoma cells
- selectivity towards cancer cells compared to fibroblasts ([3]; IGR39 (melanoma) vs fibroblasts): 2.8
- 'wound' area compared to the control (times larger) (Panc-1 cell migration): 7.5 times
- cell viability compared to the control (inhibited up to) ([4]; 100 µM): ~ 9%
- 'wound' area compared to the control (times larger) (PPC-1 cell migration): ~ 24 times
- FRAP reducing power (Fe^2+) [6]: 103.95 µmol/L
- cell viability compared to the control (inhibited up to) ([7]; 100 µM, 72 h, MTT): ~ 9%
- selectivity towards cancer cells compared to fibroblasts ([7]; Panc-1 vs fibroblasts): 1.2
